Data from publication PMC6895199, “A new antiviral scaffold for human norovirus identified with computer-aided approaches on the viral polymerase” (Scientific Reports, 2019).

Legend:
[1] = Cytotoxicity by the MTS method on uninfected cells; type: cell-based; conditions: mouse, uninfected RAW 264.7 cells
Experimental: Cytotoxicity: The cytotoxicity of the Compounds was evaluated by the MTS method, by exposing uninfected cells to the same concentrations of compounds for 3 days. The %cell viability was calculated as (ODtreated/ODCC) × 100, where ODCC is the OD of uninfected untreated cells and ODtreated are uninfected cells treated with compound. The CC50 was defined as the compound concentration that reduces the number of viable cells by 50%[34].

MNV = MNV CPE reduction assay (MTS) in RAW 264.7 cells; type: cell-based, mouse norovirus (MNV-1.CW1); conditions: Norovirus, RAW264.7, in Mus musculus
Experimental: The newly prepared compounds 2–7 and 34–35 were evaluated for their antiviral effect against the genogroup V mouse norovirus (MNV) using the mouse macrophage cell line RAW264.7. This assay evaluates the ability of the compounds to protect infected cells from the virus-induced cytopathic effect, thus being suitable to identify inhibition of virus replication at every step of the virus life cycle, and representing a robust cellular assay available for the rapid evaluation of potential norovirus inhibitors. Compounds identified using MNV have shown effects against HuNoV in vitro and in vivo, as in the case of nucleoside RdRp inhibitor 2′-C-methylcytidine (2CMC)[34]–[36]. Unfortunately, despite not presenting the aqueous solubility issues we had previously encountered for 1[29], no significant antiviral effect could be observed in this assay for the new compounds up to the maximum concentration tested. The new structural modifications, despite retaining inhibition of the RdRp in an isolated enzyme activity assay and showing no cytotoxic effects at the test concentrations in the MNV antiviral assay (Supplementary Table S1), are correlated with a lack of antiviral activity. As these new structures present the same limitation of most non-nucleoside HuNoV polymerase inhibitors reported so far[22], we were prompted to apply a different computer-aided strategy to further modify the scaffold of 1, with the aim to achieve an antiviral effect in cellular systems. […]
Since the main scope of this work was to find new norovirus inhibitors which show antiviral effects against both the HuNoV RdRp and in norovirus-infected cells, priority was given to the evaluation of most of the new molecules for their antiviral activity against MNV in infected RAW cells. The nucleoside 2′-C-methylcytidine was used as positive control. The test compounds were evaluated at eight different concentrations (range 0.6–100 µM) and their ability to reduce the virus-induced cytopathic effect was assessed.
Cells and virus: MNV (virus strain MNV-1.CW1) was propagated in RAW 264.7 cells grown in DMEM (Life Technologies, Gent, Belgium) supplemented with 10% or 2% FBS, 2 mM L-glutamine, 20 mM HEPES, 0.075 g/L sodium bicarbonate, 1 mM sodium pyruvate, 100 U penicillin/mL and 100 µg/mL streptomycin at 37 °C in a humidified atmosphere of 5% CO2. The human norovirus GI.1 replicon harboring gastric tumor-1 cell line (HGT-NV) (kindly provided by Dr. Ian Goodfellow, University of Cambridge) was maintained in DMEM supplemented with 10% FBS, 2mM L-glutamine, 0.075 g/L sodium bicarbonate and 1.0 mg/ml of Geneticin (G418; Life Technologies), at 37 °C in a humidified atmosphere of 5% CO2[34].
Antiviral assay with MNV: The antiviral activity of the Compounds was determined using an MTS [3-(4,5-dimethylthiazol-2-yl)-5-(3-carboxymethoxyphenyl)-2-(4-sulfophenyl)-2H-tetrazolium]-based cytopathic effect (CPE) reduction assay. […] Then, a MTS-phenazinemethosulfate (MTS/PMS) stock solution [(2 mg/mL MTS (Promega, Leiden, The Netherlands) and 46 µg/mL PMS (Sigma–Aldrich, Bornem, Belgium) in PBS at pH 6–6.5)] was diluted 1/20 in MEM (Life Technologies, Gent, Belgium) and 75 µL were added to each well. After 2 h, the optical density (OD) was read at 498 nm. The %CPE reduction was calculated as [(ODtreated)MNV − ODVC]/[ODCC − ODVC] × 100, where ODCC represents the OD of the uninfected untreated cells, whereas ODVC and (ODtreated)MNV represent the OD of infected untreated cells and virus-infected cells treated with a compound concentration, respectively. The 50% effective concentration (EC50) was defined as the compound concentration that protected 50% of the cells from virus-induced CPE[34].

HuNoV (GII.4) RdRp [2] = assay: Counter-screen gel-shift assay of primed elongation activity (PE44-NoV template); type: biochemical, human norovirus; conditions: fixed concentration of 100 μM
Experimental: To further confirm RdRp inhibition and exclude any potential false positives from the first fluorescence RdRp assay, the eight molecules were then assessed using a gel-shift enzyme activity assay at a fixed concentration of 100 μM, following a procedure previously adopted by our research group.
Figure 5 A counter-screen gel-shift assay was used to confirm HuNoV (GII.4) RdRp inhibitory activity of compounds 2, 3, 34 and 35 (A), 4, 5, 6 (B) and 7 (C). The eight compounds were examined for inhibition of primed elongation activity. PE44-NoV RNA templates (32 nucleotides) were extended (44 nucleotides) by the RdRp in the absence of any test compounds (0.5% DMSO [vol/vol] negative control) or with test compounds at a fixed concentration of 100 μM. […] Full-length gels are presented in Supplementary Fig. S3.
(§1) Fluorescent RdRp activity assays were carried out as previously described[12],[29]. Briefly, RdRp activity was quantified by monitoring the formation of double-stranded RNA (dsRNA) from a single stranded homopolymeric template, poly(C) (Sigma Aldrich), using the fluorescent dye PicoGreen (Life Technologies, Carlsbad, CA, USA). RdRp assays were performed in 384-well plates, and each reaction mixture contained 400 ng enzyme, 45 μM GTP, 10 ng/μL poly(C) RNA, 2.5 mM MnCl2, 5 mM dithiothreitol, (DTT), 0.01% bovine serum albumin (BSA), and 0.005% Tween 20 in 20 mM Tris-HCl, pH 7.5, with a final reaction volume of 25 μL. The PPNDS and compound 1 were used as a positive controls. RdRps were incubated for 10 mins at 30 °C in the presence of the test compounds or the compound vehicle DMSO (0.5% vol/vol) before addition into the reaction mixture, which was then allowed to run 15 min at 30 °C then terminated with 10 mM EDTA, followed by PicoGreen staining and dsRNA quantitation. GraphPad Prism V6.05 (La Jolla, CA, USA) was used to plot the IC50 values. A secondary gel-based polymerase activity assay was used as a counter-screen as described below, to exclude the possibility of RdRp activity enhancement. Primed elongation activity was examined in a gel-based assay as previously described[12],[29] using the RNA template (PE44-NoV). Gels were imaged using BioRad (Hercules, CA, U.SA) Geldoc Universal Hood II, running BioRad Image Lab software, V4.1, build 16.

HuNoV (GII.4) RdRp [3] = target: HuNoV (GII.4) RdRp (Norovirus Hu/GII.4/Sydney/NSW0514/2012/AU, UniProt K4L8Z7); assay: Quantitative fluorescent RdRp activity assay (PicoGreen, poly(C) template); type: biochemical, human norovirus Sydney 2012
Experimental: The newly synthesised compounds, including the carboxylate ester derivatives 34–35 and 7 from the Core Hopping approach, were evaluated for their enzymatic inhibition of human norovirus Sydney 2012 (HuNoV (GII.4)) RdRp activity in vitro, using a quantitative fluorescent assay. Compounds were tested at six different concentrations (concentration range examined: 0.1–100 µM) and compared to the relative activity of mock treated samples containing the vehicle only (0.5% DMSO [vol/vol]). PPNDS [Pyridoxal-5′-phosphate-6-(2′-naphthylazo-6′-nitro-4′,8′-disulfonate) tetrasodium salt], a previously reported potent inhibitor of NoV RdRp activity, and 1 were used as positive controls. Dose-dependent inhibitory response curves were used to establish IC50 values for the eight test compounds, as reported in Table 1 (see also Supplementary Fig. S1).
The newly prepared compounds 48–60 were initially evaluated against norovirus Sydney 2012 RdRp activity in vitro using a quantitative fluorescent assay. Compounds were tested at a fixed concentration of 20 µM and compared to the relative activity of mock treated samples. PPNDS and 1 were used as positive controls. […] These two rings are structural features present in 1 and in one of its derivatives we have previously reported. […] From these observations, the thiophene ring appears not to influence inhibitory activity. Derivatives in which the central core of 48 has been used to link the two terminal hydrophobic rings of 1 or of its derivatives we have previously reported[25] (55, 57, 58) appear to retain the RdRp inhibitory activity found for 48 (~20% at 20 µM). A similar effect is obtained when a sulfonyl group, as in our hit 1, is used to link ring 2, regardless if it is a thiazole (59) or an unsubstituted phenyl ring (60), to the rest of the molecule. […] Overall, even if showing a reduced biochemical activity in comparison with 1, some of the new derivatives can be considered as modest HuNoV RdRp inhibitors at 20 µM.
as §1

[4] = Crystal formation seen in the cell-based assays; type: physicochemical; conditions: MNV CPE reduction assay, Supplementary Table S1
[5] = Supplementary Table S1, at least two independent experiments

Structure (SMILES)	CC50 at 3 days [1, 5]	EC50 (MNV; [5])	inhibition of primed elongation activity (gel-shift) (HuNoV (GII.4) RdRp [2])	inhibition at 100 µM (HuNoV (GII.4) RdRp [3]; 100 µM, read-out: inhibition of RdRp activity at the maximum concentration tested)	crystals noted in the assay [4]	IC50 (HuNoV (GII.4) RdRp [3]; HuNoV (GII.4) RdRp activity, six concentrations 0.1–100 µM, mean ± SD)	CC50 at 3 days ([1]; Table 2, at least three independent experiments)	EC50 (MNV; Table 2, RAW 264.7, range 0.6–100 µM, at least three independent experiments)	inhibition at 20 µM (HuNoV (GII.4) RdRp [3]; 20 µM, read-out: inhibition of HuNoV RdRp activity at fixed concentration)
O=C(Cc1cccc(-c2ccccc2)c1)Nc1ccc(S(=O)(=O)Nc2ccccc2)cc1 [Compound 7, 2-([1,1′-biphenyl]-3-yl)-N-(4-(N-phenylsulfamoyl)phenyl)acetamide]	20 ± 21 µM	> 12.5 µM	did not demonstrate inhibition	20%					
CCOC(=O)c1ccc(N2NC(=O)/C(=C\c3ccc(-c4ccc(S(=O)(=O)Nc5ccccc5)cc4)o3)C2=O)cc1 [Compound 34, Ethyl(E)-4-(3,5-dioxo-4-((5-(4-(N-phenylsulfamoyl)phenyl)furan-2-yl)methylene)pyrazolidin-1-yl)benzoate]	> 100 µM	> 100 µM			crystals	13.5 ± 5.8 µM			
O=C(NC(=S)Nc1ccc(N2CCN(C(=O)c3ccco3)CC2)cc1)c1sc2ccccc2c1Cl [Compound 53, 3-Chloro-N-((4-(4-(furan-2-carbonyl)piperazin-1-yl)phenyl)carbamothioyl)benzo[b]thiophene-2-carboxamide]			significant inhibition				9.4 ± 2.3 µM	> 100 µM	≤ 60%
